From patent US11169138B2, “Nanopores with internal protein adaptors” (priority 2015, dated 2021)
Entries after “also recorded” stand apart in the source; their conditions may differ.

Columns and labels:
[1] = target: T1, AlkB-Fe^++ (E. coli AlkB demethylase) (Escherichia coli, UniProt P05050); assay: Ligand binding to AlkB-Fe++ confined inside ClyA-AS nanopore, single-channel ionic current recording; details: for L2B ΔIRES % (ligand-induced current enhancement from L2): 150 mM NaCl, 15 mM Tris HCl pH 8.0, 28° C.; for L2B ΔIRES % (ligand-induced current enhancement from L2) / mean duration (toff) of ligand-induced events: ligand cis
T1 construct: made in house; host or cells: E. cloni EXPRESS BL21(DE3) E. coli
T1 sequence (P05050 with tags, fused parts or gaps): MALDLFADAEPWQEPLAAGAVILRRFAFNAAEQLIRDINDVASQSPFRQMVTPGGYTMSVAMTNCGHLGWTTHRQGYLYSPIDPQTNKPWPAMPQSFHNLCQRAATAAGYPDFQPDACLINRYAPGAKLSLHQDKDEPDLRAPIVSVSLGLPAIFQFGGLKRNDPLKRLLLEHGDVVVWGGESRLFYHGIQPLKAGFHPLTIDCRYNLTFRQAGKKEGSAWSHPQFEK
Experimental: (§1) The applied potential refers to the potential of the trans electrode. ClyA-AS nanopores were inserted into lipid bilayers from the cis compartment, which was connected to the ground electrode. The two compartments were separated by a 25 μm thick polytetrafluoroethylene film (Goodfellow Cambridge Limited) containing an orifice of ˜100 μm in diameter. The aperture was pretreated with ˜5 μl of 10% hexadecane in pentane and a bilayer was formed by the addition of ˜10 μL of 1,2-diphytanoyl-sn-glycero-3-phosphocholine (DPhPC) in pentane (10 mg/mL) to both electrophysiology chambers. Typically, the addition of 0.01-0.1 ng of oligomeric ClyA-AS to the cis compartment (0.5 mL) was sufficient to obtain a single channel. […] Electrical recordings were carried out in 150 mM NaCl, 15 mM Tris.HCl pH 8.0 (AlkB experiments) or 150 mM NaCl, 15 mM Tris.HCl pH 7.5 (DHFR experiments). The temperature of the recording chamber was maintained at 28° C. by water circulating through a metal case in direct contact with the bottom and sides of the chamber.
(§2) Electrical signals from planar bilayer recordings were amplified using an Axopatch 200B patch clamp amplifier (Axon Instruments) and digitized with a Digidata 1440 A/D converter (Axon Instruments). Data were recorded by using the Clampex 10.4 software (Molecular Devices) and the subsequent analysis was carried out with the Clampfit software (Molecular Devices). Electrical recordings were performed in 150 mM NaCl, 15 mM Tris.HCl pH 8.0 (AlkB) or pH 7.5 (DHFR) by applying a 2 kHz low-pass Bessel filter and a 10 kHz sampling rate. For further analysis traces were filtered digitally with a Bessel (8-pole) low-pass filter with a 50 Hz cut-off. Residual current values (IRES%) were calculated from blocked pore current values (IB) and open pore current values (IO) as IRES %=100*IB/IO. IB and IO were determined from Gaussian fits to all point current histograms (0.05 pA bin size) for at least 15 individual protein blockades. ΔIRES % values were calculated from IRES % using propagation of errors.
(§3) Current transitions from level 1 were analyzed with the “single-channel search” function in Clampfit. The detection threshold to collect the ligand-induced events for AlkB was set to 4 pA and events shorter than 10 ms were ignored. […] The resulting event dwell times (toff) and the time between events (ton) were binned together as cumulative distributions and fitted to a single exponential to retrieve the ligand-induced lifetimes (τoff) and the ligand-induced event frequencies (f=1/τon). The process of event collection was monitored manually. For AlkB, final values of τon and τoff were based on average values derived from at least 3 single channel experiments at each concentration. Each experiment analysed more than 8 AlkB blockades. At the low ligand concentrations (0.2 mM) about 100 ligand-binding events were measured. Otherwise more than 150 events were collected. […] Subsequently, the ton values were binned together as cumulative distributions and fitted to a single exponential fit to retrieve characteristic τon values. The values for koff represented in FIG. 2b and FIG. 4b were determined by taking the average±standard deviations of 1/toff of at least 3 single channel experiments. The values of the association rate constants (kon) were determined from the slope of the linear regression curves calculated from the dependency of the event frequencies (f=1/τon) on the ligand concentration (OriginLab, FIGS. 2b and 4b). Graphs were made with Origin (OriginLab Corporation) or Clampfit software (Molecular Devices).
9, 872-877; Bleijlevens, B. et al. (2012) Biochem. 2012, 51, 3334-3341].

N120D-AlkB-Fe^++ = target: T2, N120D-AlkB-Fe^++ (Escherichia coli, UniProt P05050, N120D); assay: Ligand binding to N120D AlkB mutant confined inside ClyA-AS nanopore; set-up: species or system E. coli; details: 7.2 mM 2-OG, N=4
T2 construct: additional alanine after the starting methionine (cloning residue, between Met1 and Leu2) (N); Strep-tag via glycine-serine-alanine linker (C); made in house; host or cells: pT7-SC1 plasmid; expression host not restated for the mutant
T2 sequence (P05050 1-216 N120D): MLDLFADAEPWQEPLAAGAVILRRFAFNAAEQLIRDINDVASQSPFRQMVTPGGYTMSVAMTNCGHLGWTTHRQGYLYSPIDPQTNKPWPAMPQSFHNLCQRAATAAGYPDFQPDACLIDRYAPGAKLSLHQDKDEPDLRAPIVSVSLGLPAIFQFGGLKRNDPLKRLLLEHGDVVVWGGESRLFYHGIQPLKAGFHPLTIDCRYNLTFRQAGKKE

DHFRtag:MTX = target: T3, DHFRtag:MTX (Escherichia coli, UniProt P0ABQ4, C152S/C85A); assay: Ligand binding to DHFRtag:MTX complex confined inside ClyA-AS nanopore, single-channel recording; set-up: species or system E. coli; details: for L2B ΔIRES %: from L2
T3 construct: Met-Ala-Ser-Ala (N); made in house; host or cells: E. cloni EXPRESS BL21(DE3) E. coli
T3 sequence (P0ABQ4 1-159 C85A/C152S): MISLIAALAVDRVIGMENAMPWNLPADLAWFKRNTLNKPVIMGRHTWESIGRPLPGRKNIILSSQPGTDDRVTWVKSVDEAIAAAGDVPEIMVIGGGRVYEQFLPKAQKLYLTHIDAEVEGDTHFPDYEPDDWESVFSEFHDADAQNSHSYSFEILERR
Experimental: as §1, §2, §3

DHFR = target: T4, DHFR (Escherichia coli, UniProt P0ABQ4, C152S/C85A); assay: Ligand effects on DHFR (untagged construct) blockades of ClyA-AS nanopore; type: binding, E. coli; details: 20 μM NADPH cis after 400 nM MTX, −90 mV
T4 construct: Met-Ala-Ser-Ala (N); made in house; host or cells: E. cloni EXPRESS BL21(DE3) E. coli
T4 sequence (P0ABQ4 1-159 C85A/C152S): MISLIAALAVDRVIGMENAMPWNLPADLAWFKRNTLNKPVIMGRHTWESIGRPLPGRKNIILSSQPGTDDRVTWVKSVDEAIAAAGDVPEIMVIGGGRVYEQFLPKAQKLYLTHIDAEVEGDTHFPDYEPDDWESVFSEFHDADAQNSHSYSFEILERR

[2] = −90 mV, pH 7.5, 28° C., ligand trans

O=C(O)CCC(=O)C(=O)O [2-OG, 2-oxoglutarate]
L2B ΔIRES % (ligand-induced current enhancement from L2) ([1]; −60 mV): +1.7 ± 1.2% | mean duration (toff) of ligand-induced events ([1]; −60 mV): 1.7 ± 0.5 s | koff −60 mV ([1]; −60 mV, pH 8.0, 28° C.): 0.66 ± 0.33 s⁻¹ | kon −60 mV ([1]; −60 mV, pH 8.0, 28° C., slope of event frequency vs concentration): 1.8 ± 0.3 × 10^3 s^−1 M^−1 | current transitions in N120D-AlkB-Fe++ blockades (N120D-AlkB-Fe^++): did not induce current transitions

O=C(O)CNC(=O)C(=O)O [N-OG, N-oxalylglycine]
koff ([1]; pH 8, read-out: koff −60 mV): 0.57 ± 0.1 s⁻¹ | kon ([1]; pH 8, read-out: kon −60 mV): 1200 ± 300000 M⁻¹ s⁻¹ | L2B ΔIRES % (ligand-induced current enhancement from L2) ([1]; −60 mV): +1.7 ± 1.0% | mean duration (toff) of ligand-induced events ([1]; −60 mV): 1.8 ± 0.4 s

NC(=O)c1ccc[n+]([C@@H]2O[C@H](COP(=O)([O-])OP(=O)(O)OC[C@H]3O[C@@H](n4cnc5c(N)ncnc54)[C@H](OP(=O)(O)O)[C@@H]3O)[C@@H](O)[C@H]2O)c1 [NADP+]
DHFRtag:MTX blockades not responding to the ligand (DHFRtag:MTX; NADP+ added in trans): Approximately 45% | τM:N+ (dwell of NADP+ events) (DHFRtag:MTX; −90 mV, NADP+ trans): 102 ± 11 ms | koff −90 mV (DHFRtag:MTX; −90 mV, pH 7.5, 28° C.): 10 ± 1 s⁻¹ | kon −90 mV (DHFRtag:MTX; −90 mV, pH 7.5, 28° C.): 2.1 ± 0.3 × 10^6 s^−1 M^−1 | L2B ΔIRES % (DHFRtag:MTX; [2]): +4.7 ± 0.9%

NC(=O)C1=CN([C@@H]2O[C@H](COP(=O)(O)OP(=O)(O)OC[C@H]3O[C@@H](n4cnc5c(N)ncnc54)[C@H](OP(=O)(O)O)[C@@H]3O)[C@@H](O)[C@H]2O)C=CC1 [NADPH]
enhancement of residual ionic current on NADPH binding (DHFRtag:MTX; DHFR10+/4+/tag:MTX complexes, −90 mV): ~4 pA | DHFRtag:MTX blockades with "long" NADPH events (DHFRtag:MTX; NADPH trans): ~55% | DHFRtag:MTX blockades with "short" NADPH events (DHFRtag:MTX; NADPH trans): Approximately 45% | kon, "long" NADPH events (DHFRtag:MTX; −90 mV): 4.8e+06 ± 1.2e+06 M⁻¹ s⁻¹ | kon, "short" NADPH events (DHFRtag:MTX; −90 mV): 5.8e+06 ± 1.2e+06 M⁻¹ s⁻¹ | ΔIRES %, "long" NADPH events (DHFRtag:MTX; −90 mV): 2.7±0.7% | ΔIRES %, "short" NADPH events (DHFRtag:MTX; −90 mV): 2.2±0.9% | lifetime of "long" NADPH binding events (DHFRtag:MTX; −90 mV, NADPH trans): > 3 s | lifetime of "short" NADPH binding events (DHFRtag:MTX; −90 mV, NADPH trans): 38.5 ± 0.8 ms | kon −90 mV (DHFRtag:MTX; −90 mV, pH 7.5, 28° C.): 4.8 ± 1.2 × 10^6 s^−1 M^−1 | L2B ΔIRES % (first NADPH column as printed) (DHFRtag:MTX; [2]): +2.7 ± 0.7% | L1B ΔIRES % (DHFRtag:MTX; −90 mV, pH 7.5, 28° C., ligand trans, from L1): +2.7±0.7% | L2B ΔIRES % (DHFRtag:MTX; [2]): +5.4 ± 1.0% | effect of NADPH on DHFR blockades in presence of MTX (DHFR): abolished; also recorded: nearly total elimination of the DHFR blockades
